Test results as given in patent US9006228B2 (Merck Sharp & Dohme Corp., priority 2011, dated 2015).

The compounds below were run against T1, human GPR119 (Homo sapiens, UniProt Q8TDV5) (assay: Measurement of GPR119 signaling (cAMP assay; LANCE kit or HTRF) in HEK293 cells stably transfected with human GPR119). Conditions: agonist-stimulated cAMP in HEK293 cells expressing human GPR119.
T1 sequence (Q8TDV5 1-308 limits assumed): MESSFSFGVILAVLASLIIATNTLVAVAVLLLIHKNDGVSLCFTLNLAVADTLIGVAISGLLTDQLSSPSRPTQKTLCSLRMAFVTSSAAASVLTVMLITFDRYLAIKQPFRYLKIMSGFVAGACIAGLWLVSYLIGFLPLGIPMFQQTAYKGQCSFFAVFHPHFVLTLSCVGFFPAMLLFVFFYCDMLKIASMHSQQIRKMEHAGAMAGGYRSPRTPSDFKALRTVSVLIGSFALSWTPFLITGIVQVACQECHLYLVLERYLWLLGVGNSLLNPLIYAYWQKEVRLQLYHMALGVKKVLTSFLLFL
Type: cell-based
Experimental: Measurement of GPR119 Signaling Using LANCE 384-Well cAMP Kit
The adenylate cyclase assay was constructed following the LANCE™ cAMP Kit (Perkin Elmer, AD0264) instructions. […] The reaction was stopped by incubating with the supplied detection buffer containing the europium chelate of the Eu-SA/Biotin-cAMP tracer for 3 hours. The assay was performed in duplicate in a 384 well plate for duplicate plates. Fluorescence at 665 nm was measured using a PHERAstar instrument. Basal activity was determined using a DMSO control and maximum response was defined as cAMP stimulation produced by an internal agonist control. Standard cAMP concentrations were assayed concurrently for conversion of fluorescence signal to cAMP level. The data was analyzed using 4-parameter curve fit in Microsoft Excel.
Measurement of GPR119 Signaling Using a Cyclic AMP (cAMP) Homogenous Time Resolved Fluorescence (HTRF) Assay
Chinese hamster ovary (CHO) cell lines stably transfected with the permissive guanine nucleotide binding protein alpha 15 (Gα15) and murine GPR119 were maintained in DMEM media containing FBS, penicillin-streptomycin, puromycin, and G418 (geneticin). […] Agonist activation of the GPR119 receptor was measured in receptor transfected cells described above, treated with compounds of this invention, using a commercial homogenous time resolved fluorescence (HTRF) kit for measurement of cAMP (CisBio, Bedford, Mass.). The assay was performed in 96-well half-volume plates (murine) or 384-well plates (human) following the manufacturers instructions. Briefly, suspended cells were incubated with a dose titration of test compound at RT for 60 min, lysed, and incubated with HTRF reagents for an additional 60 min. The plate was read using an Envision multilabel reader (Perkin Elmer) adjusted to read time resolved fluorescence and the cAMP concentrations were extrapolated from a cAMP calibration curve. […] The concentration of test compound required to stimulate a half-maximal response (EC50), and efficacy as compared to an internal agonist control, was determined from a sigmoidal 4-parameter curve fit of the resulting plot of normalized activity versus compound concentration.

Compound	EC50 [nM]
CC(C)c1noc(N2CCC([C@H]3C[C@H]3COCc3ccc(S(C)(=O)=O)c(F)c3)CC2)n1 [Example 35, 4-[(1R,2R)-2-({[3-fluoro-4-(methylsulfonyl)benzyl]oxy}methyl)cyclopropyl]-1-(3-isopropyl-1,2,4-oxadiazol-5-yl)piperidine]	0.2
O=S(=O)(CCO)c1ccc(COC[C@@H]2C[C@@H]2C2CCN(c3ncc(Br)cn3)CC2)c(F)c1 [Example 81]	1.7
CCc1cnc(N2CCC([C@H]3C[C@H]3COCc3ccc(-c4cncnc4)cc3F)CC2)nc1 [Example 108, 5-{4-[({(1R,2R)-2-[1-(5-ethylpyrimidin-2-yl)piperidin-4-yl]cyclopropyl}methoxy)methyl]-3-fluorophenyl}pyrimidine]	1.1
COC(C)c1cnc(N2CCC([C@H]3C[C@H]3COCc3ccc(S(C)(=O)=O)cc3F)CC2)nc1 (single isomer, unassigned) [Example 126]	1.5
CC(O)CS(=O)(=O)c1ccc(COC[C@@H]2C[C@@H]2C2CCN(C(=O)OC(C)(C)C)CC2)cc1 (stereo partly drawn) [Example 94]	9.5
CC(C)c1noc(N2CCC([C@H]3C[C@H]3COCc3ccc(S(C)(=O)=O)cc3F)CC2)n1 [Example 78, 4-[(1R,2R)-2-({[2-fluoro-4-(methylsulfonyl)benzyl]oxy}methyl)cyclopropyl 1]-1-(3-isopropyl-1,2,4-oxadiazol-5-yl)piperidine]	4.9
CCOc1cnc(N2CCC([C@H]3C[C@H]3COCc3ccc(S(C)(=O)=O)c(F)c3)CC2)nc1 [Example 129, 5-ethoxy-2-(4-((1R,2R)-2-(((3-fluoro-4-(methylsulfonyl)benzyl)oxy)methyl)cyclopropyl)piperidin-1-yl)pyrimidine]	1.65
CCc1noc(N2CCC([C@H]3C[C@H]3COCc3ccc(S(C)(=O)=O)c(F)c3)CC2)n1 [Example 36, 1-(3-ethyl-1,2,4-oxadiazol-5-yl)-4-[(1R,2R)-2-({[3-fluoro-4-(methylsulfonyl)benzyl]oxy}methyl)cyclopropyl]piperidine]	1.9
COCc1cnc(N2CCC([C@H]3C[C@H]3COCc3ccc(CC(=O)N4CC(F)C4)cc3F)CC2)nc1 [Example 148, 2-(3-fluoro-4-((((1R,2R)-2-(1-(5-(methoxymethyl)pyrimidin-2-yl)piperidin-4-yl)cyclopropyl)methoxy)methyl)phenyl)-1-(3-fluoroazetidin-1-yl)ethanone]	3.56
COC(=O)c1cnc(N2CCC([C@H]3C[C@H]3COCc3ccc(S(C)(=O)=O)cc3)CC2)nc1 [Example 17, methyl 2-{4-[(1R,2R)-2-({[4-(methylsulfonyl)benzyl]oxy}methyl)cyclopropyl]piperidin-1-yl}pyrimidine-5-carboxylate]	20
CS(=O)(=O)c1ccc(COC[C@@H]2C[C@@H]2C2CCN(c3ncc(Br)cn3)CC2)c(F)c1 [Example 70]	0.19
CC(C)(C)OC(=O)N1CCC([C@H]2C[C@H]2COCc2cc(F)c(S(C)(=O)=O)c(F)c2)CC1 [Example 44, tert-butyl 4-[(1R,2R)-2-({[3,5-difluoro-4-(methylsulfonyl)benzyl]oxy}methyl)cyclopropyl]piperidine-1-carboxylate]	14.8
CS(=O)(=O)c1ccc(COC[C@@H]2C[C@@H]2C2CCN(c3ncc(-c4cn[nH]c4)cn3)CC2)nc1 [Example 7]	15.6
Cc1cnc(N2CCC([C@H]3C[C@H]3COCc3ccc(S(C)(=O)=O)cc3F)CC2)nc1 [Example 74]	4.3
CC(C)(O)c1cnc(N2CCC([C@H]3C[C@H]3COCc3ccc(S(C)(=O)=O)cc3F)CC2)nc1 [Example 75, 2-(2-{4-[(1R,2R)-2-({[2-fluoro-4-(methylsulfonyl)benzyl]oxy}methyl)cyclopropyl]piperidin-1-yl}pyrimidin-5-yl)propan-2-ol]	25
